Laboratory results reported in US12331044B2, “Inhibitors of histone deacetylase useful for the treatment or prevention of HIV infection” (Merck Sharp & Dohme LLC, priority 2018, dated 2025).
Like-named read-outs stand apart in the source and are kept apart here.

Assays:
[1] = target: human HDAC2 (Homo sapiens (Human), UniProt Q92769); test: HDAC2 inhibition assay (modified FLUOR DE LYS, 384-well); type: biochemical
[2] = target: human HDAC8 (Homo sapiens (Human), UniProt Q9BY41); test: HDAC8 inhibition assay (modified FLUOR DE LYS, 384-well); type: biochemical
[3] = test system: KARN cells (Jurkat 2C4); test: cells; settings: Homo sapiens
[4] = target: human HDAC1 (Homo sapiens (Human), UniProt Q13547); test: biochemical
[5] = target: human HDAC3/SMRT heterodimer (Homo sapiens (Human), UniProt O15379); test: biochemical
[6] = target: HDAC6 (Homo sapiens (Human), UniProt Q9UBN7); test: biochemical
[7] = […] nM enzyme, 40 μM substrate BML-KI104, 3 h pre-incubation, read-out: HDAC2 IC50
[8] = […] nM enzyme, 200 μM substrate BML-KI178, 3 h pre-incubation, read-out: HDAC8 IC50
[9] = read-out: Karn EC50 nM 0.1% NHS, 0.1% normal human serum, luciferase induction, 2 μM SAHA = 100%
[10] = read-out: Karn EC50 nM 5% NHS, 5% normal human serum, luciferase induction, 2 μM SAHA = 100%
[11] = read-out: Karn EC50 nM 0.1% NHS

Chain of human HDAC3/SMRT heterodimer (O15379 whole entry): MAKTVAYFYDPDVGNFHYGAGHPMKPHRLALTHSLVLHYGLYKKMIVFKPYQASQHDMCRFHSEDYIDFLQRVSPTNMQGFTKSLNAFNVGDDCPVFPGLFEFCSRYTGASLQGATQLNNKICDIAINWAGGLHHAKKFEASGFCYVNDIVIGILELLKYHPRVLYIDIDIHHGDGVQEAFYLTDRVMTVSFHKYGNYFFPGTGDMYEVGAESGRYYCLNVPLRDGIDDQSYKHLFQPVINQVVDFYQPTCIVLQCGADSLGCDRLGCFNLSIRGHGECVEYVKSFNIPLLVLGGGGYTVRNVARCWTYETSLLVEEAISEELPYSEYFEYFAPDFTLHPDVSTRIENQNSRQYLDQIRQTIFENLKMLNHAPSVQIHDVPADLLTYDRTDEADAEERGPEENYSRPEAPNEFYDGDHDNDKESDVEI
Chain of human HDAC3/SMRT heterodimer (Q9Y618 1-899 partner): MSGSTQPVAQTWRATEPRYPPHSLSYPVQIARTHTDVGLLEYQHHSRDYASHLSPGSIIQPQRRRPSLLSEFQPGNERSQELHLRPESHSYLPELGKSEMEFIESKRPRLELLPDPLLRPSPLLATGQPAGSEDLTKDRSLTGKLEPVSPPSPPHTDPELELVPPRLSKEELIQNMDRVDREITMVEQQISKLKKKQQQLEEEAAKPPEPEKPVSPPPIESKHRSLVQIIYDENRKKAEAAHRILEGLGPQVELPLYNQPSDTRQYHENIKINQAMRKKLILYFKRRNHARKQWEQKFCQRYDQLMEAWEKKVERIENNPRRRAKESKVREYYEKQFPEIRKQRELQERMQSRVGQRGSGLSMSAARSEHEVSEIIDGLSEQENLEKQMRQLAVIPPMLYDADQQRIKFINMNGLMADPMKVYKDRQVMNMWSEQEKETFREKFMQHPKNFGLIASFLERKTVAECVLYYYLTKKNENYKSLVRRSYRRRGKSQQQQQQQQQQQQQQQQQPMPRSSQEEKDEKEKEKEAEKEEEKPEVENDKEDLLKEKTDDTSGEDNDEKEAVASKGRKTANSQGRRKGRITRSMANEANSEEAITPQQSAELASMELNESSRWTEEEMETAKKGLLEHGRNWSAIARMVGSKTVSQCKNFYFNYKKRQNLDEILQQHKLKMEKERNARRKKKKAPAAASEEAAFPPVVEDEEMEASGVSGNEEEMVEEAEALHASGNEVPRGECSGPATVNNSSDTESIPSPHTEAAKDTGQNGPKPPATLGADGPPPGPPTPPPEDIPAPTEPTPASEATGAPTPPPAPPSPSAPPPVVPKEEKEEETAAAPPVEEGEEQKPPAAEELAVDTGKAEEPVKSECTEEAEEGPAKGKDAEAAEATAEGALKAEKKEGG
Chain of human HDAC8 (Q9BY41 whole entry): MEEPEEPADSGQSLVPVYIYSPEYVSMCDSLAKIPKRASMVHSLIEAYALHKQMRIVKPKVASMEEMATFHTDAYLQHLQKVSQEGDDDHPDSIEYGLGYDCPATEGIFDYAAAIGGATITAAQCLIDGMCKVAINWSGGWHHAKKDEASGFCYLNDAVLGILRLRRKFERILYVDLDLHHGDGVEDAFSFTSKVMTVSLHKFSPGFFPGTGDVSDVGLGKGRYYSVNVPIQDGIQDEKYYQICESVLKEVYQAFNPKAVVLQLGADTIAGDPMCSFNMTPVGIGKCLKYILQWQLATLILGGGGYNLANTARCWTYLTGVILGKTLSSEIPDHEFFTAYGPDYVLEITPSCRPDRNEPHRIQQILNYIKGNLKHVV
Chain of human HDAC2 (Q92769 whole entry): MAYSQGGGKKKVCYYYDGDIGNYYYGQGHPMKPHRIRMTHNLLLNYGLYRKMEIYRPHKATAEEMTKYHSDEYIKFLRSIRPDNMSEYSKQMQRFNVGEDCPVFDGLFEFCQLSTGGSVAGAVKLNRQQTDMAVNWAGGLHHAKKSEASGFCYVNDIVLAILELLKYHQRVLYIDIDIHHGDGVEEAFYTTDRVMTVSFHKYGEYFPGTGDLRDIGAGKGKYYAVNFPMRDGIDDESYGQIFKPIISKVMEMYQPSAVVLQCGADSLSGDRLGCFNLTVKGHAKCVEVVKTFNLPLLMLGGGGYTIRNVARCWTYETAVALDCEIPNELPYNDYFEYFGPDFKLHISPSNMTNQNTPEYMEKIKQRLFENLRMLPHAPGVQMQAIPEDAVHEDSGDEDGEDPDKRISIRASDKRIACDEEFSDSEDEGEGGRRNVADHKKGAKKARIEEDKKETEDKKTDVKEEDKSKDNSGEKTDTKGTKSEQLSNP
Chain of HDAC6 (Q9UBN7 whole entry): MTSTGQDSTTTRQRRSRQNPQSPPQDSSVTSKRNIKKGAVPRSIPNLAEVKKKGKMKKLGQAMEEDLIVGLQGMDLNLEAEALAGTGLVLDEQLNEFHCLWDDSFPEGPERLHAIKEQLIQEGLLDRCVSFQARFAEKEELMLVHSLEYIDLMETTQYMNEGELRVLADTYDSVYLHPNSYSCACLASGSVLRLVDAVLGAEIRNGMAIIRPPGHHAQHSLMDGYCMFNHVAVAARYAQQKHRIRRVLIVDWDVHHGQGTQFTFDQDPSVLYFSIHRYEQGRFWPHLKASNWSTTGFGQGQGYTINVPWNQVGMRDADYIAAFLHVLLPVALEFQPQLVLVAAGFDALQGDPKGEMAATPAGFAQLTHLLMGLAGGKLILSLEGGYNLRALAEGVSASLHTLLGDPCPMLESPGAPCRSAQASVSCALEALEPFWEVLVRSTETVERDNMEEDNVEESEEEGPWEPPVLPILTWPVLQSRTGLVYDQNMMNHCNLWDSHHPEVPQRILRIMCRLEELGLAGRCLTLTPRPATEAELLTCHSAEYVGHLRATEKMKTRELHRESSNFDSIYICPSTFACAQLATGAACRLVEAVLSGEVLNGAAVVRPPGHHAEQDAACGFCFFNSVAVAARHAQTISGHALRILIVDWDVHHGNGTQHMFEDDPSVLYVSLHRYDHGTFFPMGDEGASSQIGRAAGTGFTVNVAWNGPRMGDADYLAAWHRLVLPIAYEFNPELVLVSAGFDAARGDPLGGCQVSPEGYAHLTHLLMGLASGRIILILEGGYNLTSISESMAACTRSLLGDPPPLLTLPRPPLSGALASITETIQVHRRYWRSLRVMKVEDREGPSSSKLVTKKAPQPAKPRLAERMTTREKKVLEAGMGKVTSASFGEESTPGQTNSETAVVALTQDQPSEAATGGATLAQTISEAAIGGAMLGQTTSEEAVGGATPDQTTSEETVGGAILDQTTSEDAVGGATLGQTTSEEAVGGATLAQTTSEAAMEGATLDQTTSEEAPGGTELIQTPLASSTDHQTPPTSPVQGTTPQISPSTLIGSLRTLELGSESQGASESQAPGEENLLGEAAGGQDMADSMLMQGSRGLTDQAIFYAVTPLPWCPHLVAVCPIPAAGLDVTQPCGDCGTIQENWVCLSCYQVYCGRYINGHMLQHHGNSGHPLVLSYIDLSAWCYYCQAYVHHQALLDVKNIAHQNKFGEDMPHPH
Chain of human HDAC1 (Q13547 whole entry): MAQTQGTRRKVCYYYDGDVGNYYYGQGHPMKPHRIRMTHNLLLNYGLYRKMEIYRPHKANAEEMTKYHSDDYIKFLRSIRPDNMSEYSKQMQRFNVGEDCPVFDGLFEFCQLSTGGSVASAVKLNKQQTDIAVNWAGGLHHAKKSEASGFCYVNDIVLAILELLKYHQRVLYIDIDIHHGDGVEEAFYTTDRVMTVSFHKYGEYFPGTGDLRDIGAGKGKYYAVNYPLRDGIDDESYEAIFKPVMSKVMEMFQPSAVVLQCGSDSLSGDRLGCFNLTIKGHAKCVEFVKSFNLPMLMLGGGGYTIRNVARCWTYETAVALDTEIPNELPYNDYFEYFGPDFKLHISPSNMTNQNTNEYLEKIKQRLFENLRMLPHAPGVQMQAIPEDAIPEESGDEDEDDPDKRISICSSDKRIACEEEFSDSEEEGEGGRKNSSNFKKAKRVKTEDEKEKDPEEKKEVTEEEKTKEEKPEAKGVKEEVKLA

Work on `COc1cc2nc(C)ccc2cc1-c1cnc([C@H](CCCCCC(=O)c2ccon2)NC(=O)C2CN(C)C2)o1` [Example 108, (S)-N-(7-(isoxazol-3-yl)-1-(5-(7-methoxy-2-methylquinolin-6-yl)oxazol-2-yl)-7-oxoheptyl)-1-methylazetidine-3-carboxamide] yielded an IC50 [1, 7] of 0.35 nM, an IC50 [2, 8] of 5.8 nM and an EC50 [3, 9] of 6.4 nM. The EC50 [3, 10] was 6.1 nM, the IC50 [4] was 0.18 nM and the IC50 [5] was 0.19 nM. It also gave an IC50 [6] of over 900 nM.
`COc1ncccc1-c1c[nH]c([C@@H](N)CCCCCC(=O)c2ccon2)n1` [Example 33, (S)-7-amino-1-(isoxazol-3-yl)-7-(4-(2-methoxypyridin-3-yl)-1H-imidazol-2-yl)heptan-1-one] was tested, and the IC50 [1, 7] was 4.3 nM, the IC50 [2, 8] was 110 nM and the EC50 [3, 9] was 61 nM. It also gave an EC50 [3, 10] of 84 nM, an IC50 [4] of 0.73 nM and an IC50 [5] of 0.84 nM. The IC50 [6] was at least 45000 nM.
With `COc1cc(-c2cnc([C@@H](N)CCCCCC(=O)c3ncco3)[nH]2)c(F)cn1` [Example 129, (S)-7-amino-7-(5-(5-fluoro-2-methoxypyridin-4-yl)-1H-imidazol-2-yl)-1-(oxazol-2-yl)heptan-1-one] the IC50 [1, 7] was 100 nM, the IC50 [2, 8] was 2300 nM and the EC50 [3, 9] was 1600 nM. It also gave an EC50 [3, 10] of 2900 nM, an IC50 [4] of 16 nM and an IC50 [5] of 16 nM. The IC50 [6] was at least 45000 nM.
`Cc1ccc2cc(-c3c[nH]c([C@H](CCCCCC(=O)c4ncco4)NCc4ccccc4)n3)ccc2n1` [Example 81, (S)-7-(benzylamino)-7-(5-(2-methylquinolin-6-yl)-1H-imidazol-2-yl)-1-(oxazol-2-yl)heptan-1-one] gave an IC50 [1, 7] of 16 nM, an IC50 [2, 8] of 4900 nM and an EC50 [3, 11] of 430 nM. It also gave an EC50 ([3]; read-out: Karn EC50 nM 5% NHS) of 690 nM, an IC50 [4] of 3.4 nM and an IC50 [5] of 3.7 nM. The IC50 [6] was 21000 nM.
Compound `O=C1CC[C@](CCCCCC(=O)c2ncco2)(c2ncc(-c3ccc(F)cc3)[nH]2)N1` [Example 65, (R)-5-(5-(4-fluorophenyl)-1H-imidazol-2-yl)-5-(6-(oxazol-2-yl)-6-oxohexyl)pyrrolidin-2-one] has an IC50 [1, 7] of 11 nM, an IC50 [2, 8] of 3100 nM and an EC50 [3, 9] of 470 nM. For the same compound, the EC50 [3, 10] was 630 nM, the IC50 [4] was 2.2 nM and the IC50 [5] was 2.2 nM. The IC50 [6] was at least 45000 nM.
`CN(C)CC(=O)N[C@@H](CCCCCC(=O)c1ncco1)c1ncc(-c2ccc3nccnc3c2)[nH]1` [Example 95, (S)-2-(dimethylamino)-N-(7-(oxazol-2-yl)-7-oxo-1-(5-(quinoxalin-6-yl)-1H-imidazol-2-yl)heptyl)acetamide] gave an IC50 [1, 7] of 8.6 nM, an IC50 [2, 8] of 68 nM and an EC50 [3, 9] of 63 nM. For the same compound, the EC50 [3, 10] was 84 nM, the IC50 [4] was 1.3 nM and the IC50 [5] was 2.2 nM. It also gave an IC50 [6] of 700 nM.
`COc1ncccc1-c1c[nH]c([C@]2(CCCCCC(=O)c3ccon3)CCCC(=O)N2)n1` [Example 71, (S)-6-(6-(isoxazol-3-yl)-6-oxohexyl)-6-(4-(2-methoxypyridin-3-yl)-1H-imidazol-2-yl)piperidin-2-one] showed an IC50 [1, 7] of 6.1 nM, an IC50 [2, 8] of 690 nM and an EC50 [3, 9] of 330 nM. For the same compound, the EC50 [3, 10] was 490 nM, the IC50 [4] was 1.19 nM and the IC50 [5] was 1.8 nM. For the same compound, the IC50 [6] was over 900 nM.
`CCN1CCC2(CC1)C[C@@H]2C(=O)N[C@@H](CCCCCC(=O)c1ccon1)c1cc(-c2cc3ccc(C)nc3cc2OC)on1` [Example 145, (S)-6-ethyl-N-((S)-7-(isoxazol-3-yl)-1-(5-(7-methoxy-2-methylquinolin-6-yl)isoxazol-3-yl)-7-oxoheptyl)-6-azaspiro[2.5]octane-1-carboxamide] showed an IC50 [1, 7] of 14 nM, an IC50 [2, 8] of 5.1 nM and an EC50 [3, 9] of 49 nM. The EC50 [3, 10] was 66 nM, the IC50 [4] was 3.4 nM and the IC50 [5] was 4.2 nM. The IC50 [6] was over 900 nM.
`CN(C)CC(=O)N[C@@H](CCCCCC(=O)c1ncco1)c1[nH]c(-c2ccc(F)cc2)nc1C#N` [Example 186, (S)-N-(1-(4-cyano-2-(4-fluorophenyl)-1H-imidazol-5-yl)-7-(oxazol-2-yl)-7-oxoheptyl)-2-(dimethylamino)acetamide] was tested, and the IC50 [1, 7] was 1.7 nM, the IC50 [2, 8] was 220 nM and the EC50 [3, 9] was 12 nM. The EC50 [3, 10] was 21 nM, the IC50 [4] was 0.28 nM and the IC50 [5] was 0.39 nM. The IC50 [6] was at least 45000 nM.
In the case of `Cc1ccc2cc(-c3cnc(C(N)CCCCCC(=O)c4ncco4)o3)ccc2n1` (stereo not shown) [Example 26, 7-amino-7-(5-(2-methylquinolin-6-yl)oxazol-2-yl)-1-(oxazol-2-yl)heptan-1-one], the IC50 [1, 7] is reported as 35 nM, the IC50 [2, 8] is reported as 8000 nM and the EC50 [3, 9] is reported as 6200 nM. It also gave an EC50 [3, 10] of 6900 nM, an IC50 [4] of 11 nM and an IC50 [5] of 13 nM. The IC50 [6] was at least 45000 nM.
Work on `COc1cc2nc(C)ccc2cc1-c1cnc([C@H](CCCCCC(=O)c2ncco2)NC2CC(OC)C2)[nH]1` (stereo partly drawn) [Example 84, (S)-7-(5-(7-methoxy-2-methylquinolin-6-yl)-1H-imidazol-2-yl)-7-((3-methoxycyclobutyl)amino)-1-(oxazol-2-yl)heptan-1-one] yielded an IC50 [1, 7] of 22 nM, an IC50 [2, 8] of 3100 nM and an EC50 [3, 9] of 490 nM. It also gave an EC50 [3, 10] of 540 nM, an IC50 [4] of 4 nM and an IC50 [5] of 7.9 nM. The IC50 [6] was 13000 nM.
In the case of `N#Cc1nc(-c2ccc(F)cc2)oc1[C@@H](N)CCCCCC(=O)c1ncco1` [Example 189, (S)-5-(1-amino-7-(oxazol-2-yl)-7-oxoheptyl)-2-(4-fluorophenyl)oxazole-4-carbonitrile], the IC50 [1, 7] is reported as 250 nM, the IC50 [2, 8] is reported as 25000 nM and the EC50 [3, 9] is reported as 3000 nM. For the same compound, the EC50 [3, 10] was 7400 nM, the IC50 [4] was 26 nM and the IC50 [5] was 45 nM. The IC50 [6] was at least 45000 nM.
Work on `COc1cc2nc(C)ccc2cc1-c1c[nH]c([C@@H](N)CCCCCC(=O)c2ccon2)n1` [Example 31, (S)-7-amino-1-(isoxazol-3-yl)-7-(4-(7-methoxy-2-methylquinolin-6-yl)-1H-imidazol-2-yl)heptan-1-one] yielded an IC50 [1, 7] of 4.3 nM, an IC50 [2, 8] of 100 nM and an EC50 [3, 9] of 18 nM. The EC50 [3, 10] was 26 nM, the IC50 [4] was 1.4 nM and the IC50 [5] was 1.8 nM. For the same compound, the IC50 [6] was 22000 nM.
Compound `COc1cc2nc(C)ccc2cc1-c1cnc([C@H](CCCCCC(=O)c2ncco2)Nc2ncccn2)[nH]1` [Example 85, (S)-7-(5-(7-methoxy-2-methylquinolin-6-yl)-1H-imidazol-2-yl)-1-(oxazol-2-yl)-7-(pyrimidin-2-ylamino)heptan-1-one] has an IC50 [1, 7] of 11 nM, an IC50 [2, 8] of 210 nM and an EC50 [3, 9] of 67 nM. It also gave an EC50 [3, 10] of 210 nM, an IC50 [4] of 2.3 nM and an IC50 [5] of 1.5 nM. The IC50 [6] was 250 nM.
In the case of `COc1cc2nc(C)ccc2cc1-c1cnc([C@H](CCCCCC(=O)c2ncco2)NC(=O)C2CCC3(CC2)CN(C)C3)[nH]1` [Example 117, (S)-N-(1-(5-(7-methoxy-2-methylquinolin-6-yl)-1H-imidazol-2-yl)-7-(oxazol-2-yl)-7-oxoheptyl)-2-methyl-2-azaspiro[3.5]nonane-7-carboxamide], the IC50 [1, 7] is reported as 5.8 nM, the IC50 [2, 8] is reported as 21 nM and the EC50 [3, 9] is reported as 320 nM. For the same compound, the EC50 [3, 10] was 320 nM, the IC50 [4] was 0.82 nM and the IC50 [5] was 1.4 nM. It also gave an IC50 [6] of 680 nM.
For `O=C1CC[C@@](CCCCCC(=O)c2ccon2)(c2nc(-c3ccc(C4CC4)cc3F)c[nH]2)N1` [Example 68, (S)-5-(4-(4-cyclopropyl-2-fluorophenyl)-1H-imidazol-2-yl)-5-(6-(isoxazol-3-yl)-6-oxohexyl)pyrrolidin-2-one], the IC50 [1, 7] was 5 nM, the IC50 [2, 8] was 230 nM and the EC50 [3, 9] was 34 nM. For the same compound, the EC50 [3, 10] was 110 nM, the IC50 [4] was 1 nM and the IC50 [5] was 0.55 nM. It also gave an IC50 [6] of over 900 nM.
In the case of `O=C1CC[C@@](CCCCCC(=O)c2ccon2)(c2nc(-c3ccc(-c4ncco4)cc3F)c[nH]2)N1` [Example 67, (S)-5-(4-(2-fluoro-4-(oxazol-2-yl)phenyl)-1H-imidazol-2-yl)-5-(6-(isoxazol-3-yl)-6-oxohexyl)pyrrolidin-2-one], the IC50 [1, 7] is reported as 4.3 nM, the IC50 [2, 8] is reported as 400 nM and the EC50 [3, 9] is reported as 51 nM. The EC50 [3, 10] was 95 nM, the IC50 [4] was 1.8 nM and the IC50 [5] was 1.5 nM. For the same compound, the IC50 [6] was at least 45000 nM.
Compound `CN1CC(C(=O)N[C@@H](CCCCCC(=O)c2ccon2)c2[nH]c(-c3ccccc3F)nc2Cl)C1` [Example 105, (S)-N-(1-(4-chloro-2-(2-fluorophenyl)-1H-imidazol-5-yl)-7-(isoxazol-3-yl)-7-oxoheptyl)-1-methylazetidine-3-carboxamide] has an IC50 [1, 7] of 0.37 nM, an IC50 [2, 8] of 29 nM and an EC50 [3, 9] of 2.8 nM. The EC50 [3, 10] was 3.5 nM, the IC50 [4] was 0.12 nM and the IC50 [5] was 0.046 nM. The IC50 [6] was 8500 nM.
`COc1cc2nc(C)ccc2cc1-c1cnc([C@@]2(CCCCCC(=O)c3ccon3)CCC(=O)N2)[nH]1` [Example 70, (R)-5-(6-(isoxazol-3-yl)-6-oxohexyl)-5-(5-(7-methoxy-2-methylquinolin-6-yl)-1H-imidazol-2-yl)pyrrolidin-2-one] was tested, and the IC50 [1, 7] was 3.5 nM, the IC50 [2, 8] was 260 nM and the EC50 [3, 9] was 31 nM. For the same compound, the EC50 [3, 10] was 110 nM, the IC50 [4] was 0.78 nM and the IC50 [5] was 1.1 nM. For the same compound, the IC50 [6] was over 900 nM.
`COc1cc2nc(C)ccc2cc1-c1cnc([C@@H](N)CCCCCC(=O)c2ncco2)o1` [Example 27, (S)-7-amino-7-(5-(7-methoxy-2-methylquinolin-6-yl)oxazol-2-yl)-1-(oxazol-2-yl)heptan-1-one] was tested, and the IC50 [1, 7] was 9.5 nM, the IC50 [2, 8] was 1200 nM and the EC50 [3, 9] was 120 nM. For the same compound, the EC50 [3, 10] was 140 nM, the IC50 [4] was 1.9 nM and the IC50 [6] was 1110 nM.
`Cc1ccc2cc(-c3c[nH]c([C@H](CCCCCC(=O)c4ncco4)NC4CCN(C)CC4)n3)ccc2n1` [Example 78, (S)-7-((1-methylpiperidin-4-yl)amino)-7-(5-(2-methylquinolin-6-yl)-1H-imidazol-2-yl)-1-(oxazol-2-yl)heptan-1-one] gave an IC50 [1] of 8.3 nM, an IC50 [2] of 6900 nM and an EC50 [3, 11] of 660 nM. It also gave an EC50 ([3]; read-out: Karn EC50 nM 5% NHS) of 620 nM, an IC50 [4] of 2.8 nM and an IC50 [6] of at least 45000 nM.
